Experimental data reported in ChEMBL document CHEMBL5154845, “Dual-acting antitumor agents targeting the A2A adenosine receptor and histone deacetylases: Design and synthesis of 4-(furan-2-yl)-1H-pyrazolo[3,4-d]pyrimidin-6-amine derivatives” (Eur J Med Chem, 2022).

Assays:
[1] = Half-life in male ICR mouse at 5 mg/kg, iv measured up to 24 hrs by LC-MS/MS analysis; assay type: ADME, organism-based; conditions: in vivo
[2] = AUC (0 to t) in male ICR mouse at 20 mg/kg, po measured up to 24 hrs by LC-MS/MS analysis; assay type: ADME, organism-based; parameters: time < 24 hrs, dose 20 mg/kg, route po; conditions: in vivo
[3] = Tmax in male ICR mouse at 20 mg/kg, ip measured up to 24 hrs by LC-MS/MS analysis; assay type: ADME, organism-based; conditions: in vivo
[4] = Elimination rate constant in male ICR mouse at 5 mg/kg, iv measured up to 24 hrs by LC-MS/MS analysis; assay type: ADME, organism-based; conditions: in vivo
[5] = system: CT26; assay: Antiproliferative activity against mouse CT26 cells after 72 hrs by CCK-8 assay; assay type: functional
[6] = Mean residence time in male ICR mouse at 20 mg/kg, po measured up to 24 hrs by LC-MS/MS analysis; assay type: ADME, organism-based; conditions: in vivo
[7] = Elimination rate constant in male ICR mouse at 20 mg/kg, ip measured up to 24 hrs by LC-MS/MS analysis; assay type: ADME, organism-based; conditions: in vivo
[8] = Clearance in male ICR mouse at 20 mg/kg, ip measured up to 24 hrs by LC-MS/MS analysis; assay type: ADME, organism-based; conditions: in vivo
[9] = AUC (0 to t) in male ICR mouse at 20 mg/kg, ip measured up to 24 hrs by LC-MS/MS analysis; assay type: ADME, organism-based; parameters: dose 20 mg/kg, time < 24 hrs, route ip; conditions: in vivo
[10] = molecular target: Histone deacetylase 3 (Homo sapiens, UniProt O15379); assay: Inhibition of HDAC3 (unknown origin) using trypsin and LGK(Ac)-AMC as substrates incubated for 1 hr and measured by fluorescence assay
Sequence of Histone deacetylase 3 (O15379 whole entry): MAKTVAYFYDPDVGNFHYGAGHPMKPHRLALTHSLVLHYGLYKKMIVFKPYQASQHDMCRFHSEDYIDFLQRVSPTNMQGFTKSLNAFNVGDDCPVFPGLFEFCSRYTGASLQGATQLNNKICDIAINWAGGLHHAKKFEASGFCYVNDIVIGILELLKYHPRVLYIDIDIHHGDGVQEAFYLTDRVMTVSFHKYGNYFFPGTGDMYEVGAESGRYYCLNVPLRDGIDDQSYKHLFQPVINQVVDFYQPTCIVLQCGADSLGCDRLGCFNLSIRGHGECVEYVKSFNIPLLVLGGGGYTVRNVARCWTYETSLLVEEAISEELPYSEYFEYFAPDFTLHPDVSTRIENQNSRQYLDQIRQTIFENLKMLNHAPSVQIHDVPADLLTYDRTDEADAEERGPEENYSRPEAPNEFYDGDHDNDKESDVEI

[11] = molecular target: Adenosine receptor A2a (Homo sapiens, UniProt P29274); assay: Displacement of [3H][…] from human A2AAR incubated for 60 mins by scintillation counter analysis
Sequence of Adenosine receptor A2a (P29274 whole entry): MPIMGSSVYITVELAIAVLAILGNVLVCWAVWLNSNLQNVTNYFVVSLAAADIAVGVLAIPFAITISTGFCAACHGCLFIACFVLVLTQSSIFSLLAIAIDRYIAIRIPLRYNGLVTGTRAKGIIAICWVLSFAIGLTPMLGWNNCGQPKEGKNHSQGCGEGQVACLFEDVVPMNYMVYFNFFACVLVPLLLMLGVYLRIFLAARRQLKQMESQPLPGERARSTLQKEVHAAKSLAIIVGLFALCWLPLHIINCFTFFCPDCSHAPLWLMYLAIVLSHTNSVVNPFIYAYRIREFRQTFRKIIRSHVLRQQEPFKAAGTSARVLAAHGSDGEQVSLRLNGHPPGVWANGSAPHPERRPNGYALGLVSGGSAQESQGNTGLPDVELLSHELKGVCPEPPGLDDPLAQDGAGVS

[12] = Volume of distribution at steady state in male ICR mouse at 5 mg/kg, iv measured up to 24 hrs by LC-MS/MS analysis; assay type: ADME, organism-based; conditions: in vivo
[13] = Bioavailability in male ICR mouse at 20 mg/kg,ip measured up to 24 hrs by LC-MS/MS analysis; assay type: ADME, organism-based; conditions: in vivo
[14] = Half-life in male ICR mouse at 20 mg/kg, po measured up to 24 hrs by LC-MS/MS analysis; assay type: ADME, organism-based; conditions: in vivo
[15] = molecular target: T1, Protein deacetylase HDAC6 (Homo sapiens, UniProt Q9UBN7); assay: Inhibition of HDAC6 (unknown origin) using trypsin and LGK(Ac)-AMC as substrates incubated for 1 hr and measured by fluorescence assay
T1 sequence (Q9UBN7 whole entry): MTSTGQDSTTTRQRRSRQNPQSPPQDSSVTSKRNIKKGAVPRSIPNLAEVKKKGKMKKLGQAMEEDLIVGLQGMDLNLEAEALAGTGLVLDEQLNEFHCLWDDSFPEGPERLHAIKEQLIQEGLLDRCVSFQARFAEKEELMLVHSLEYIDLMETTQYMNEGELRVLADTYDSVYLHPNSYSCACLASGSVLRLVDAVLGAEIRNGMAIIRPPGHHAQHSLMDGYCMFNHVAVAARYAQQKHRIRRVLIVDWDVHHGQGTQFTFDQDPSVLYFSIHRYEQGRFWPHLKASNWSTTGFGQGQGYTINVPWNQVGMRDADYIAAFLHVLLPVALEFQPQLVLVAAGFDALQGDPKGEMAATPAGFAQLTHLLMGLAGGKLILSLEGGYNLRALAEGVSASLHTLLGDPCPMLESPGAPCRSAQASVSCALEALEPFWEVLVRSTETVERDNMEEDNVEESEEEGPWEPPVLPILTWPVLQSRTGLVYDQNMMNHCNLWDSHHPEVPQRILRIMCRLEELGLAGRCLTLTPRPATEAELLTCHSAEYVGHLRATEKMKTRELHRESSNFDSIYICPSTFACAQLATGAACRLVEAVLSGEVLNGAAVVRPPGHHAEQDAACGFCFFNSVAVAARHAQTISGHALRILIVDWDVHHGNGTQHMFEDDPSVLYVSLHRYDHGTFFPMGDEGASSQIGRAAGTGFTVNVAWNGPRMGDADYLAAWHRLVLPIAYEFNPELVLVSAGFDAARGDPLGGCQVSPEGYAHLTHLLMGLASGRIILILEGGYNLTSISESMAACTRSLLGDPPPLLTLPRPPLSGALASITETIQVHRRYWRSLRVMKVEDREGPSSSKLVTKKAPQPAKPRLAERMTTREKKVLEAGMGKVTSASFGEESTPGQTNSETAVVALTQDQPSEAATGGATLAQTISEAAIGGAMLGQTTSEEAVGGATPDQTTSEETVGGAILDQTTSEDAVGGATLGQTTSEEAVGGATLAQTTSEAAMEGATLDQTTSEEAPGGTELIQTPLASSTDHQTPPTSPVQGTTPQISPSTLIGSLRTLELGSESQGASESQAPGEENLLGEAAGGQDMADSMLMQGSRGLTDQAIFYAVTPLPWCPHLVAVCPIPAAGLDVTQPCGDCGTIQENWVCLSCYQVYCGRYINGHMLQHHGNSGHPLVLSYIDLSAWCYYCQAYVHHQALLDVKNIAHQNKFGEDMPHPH

[16] = molecular target: T2, Adenosine receptor A3 (Homo sapiens, UniProt P0DMS8); assay: Displacement of [3H]HEMADO from human A3AR incubated for 60 mins by scintillation counter analysis
T2 sequence (P0DMS8 whole entry): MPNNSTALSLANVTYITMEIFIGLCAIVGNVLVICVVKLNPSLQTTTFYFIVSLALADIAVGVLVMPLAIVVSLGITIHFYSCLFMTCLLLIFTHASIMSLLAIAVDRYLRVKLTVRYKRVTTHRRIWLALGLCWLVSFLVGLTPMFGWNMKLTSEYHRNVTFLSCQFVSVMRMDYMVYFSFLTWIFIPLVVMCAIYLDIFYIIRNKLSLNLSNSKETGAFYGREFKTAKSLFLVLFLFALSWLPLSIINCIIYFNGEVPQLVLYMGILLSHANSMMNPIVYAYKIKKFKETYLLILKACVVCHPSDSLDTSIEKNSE

[17] = molecular target: Histone deacetylase 1 (Homo sapiens, UniProt Q13547); assay: Inhibition of HDAC1 (unknown origin) using trypsin and LGK(Ac)-AMC as substrates incubated for 1 hr and measured by fluorescence assay
Sequence of Histone deacetylase 1 (Q13547 whole entry): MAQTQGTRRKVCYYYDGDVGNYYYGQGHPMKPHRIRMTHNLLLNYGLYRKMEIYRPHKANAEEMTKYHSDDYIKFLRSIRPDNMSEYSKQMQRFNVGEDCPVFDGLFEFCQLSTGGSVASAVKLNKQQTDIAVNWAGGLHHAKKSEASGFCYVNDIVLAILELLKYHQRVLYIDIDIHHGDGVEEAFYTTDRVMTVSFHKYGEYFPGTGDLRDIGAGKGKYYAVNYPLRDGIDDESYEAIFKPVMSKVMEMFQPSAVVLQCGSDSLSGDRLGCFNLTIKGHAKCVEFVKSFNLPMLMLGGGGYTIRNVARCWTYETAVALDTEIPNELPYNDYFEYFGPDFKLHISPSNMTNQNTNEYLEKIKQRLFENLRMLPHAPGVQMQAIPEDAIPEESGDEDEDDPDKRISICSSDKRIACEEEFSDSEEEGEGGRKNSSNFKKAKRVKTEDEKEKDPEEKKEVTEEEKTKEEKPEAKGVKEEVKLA

[18] = Initial plasma concentration in male ICR mouse at 5 mg/kg, iv measured up to 24 hrs by LC-MS/MS analysis; assay type: ADME, organism-based

half-life [1]: 23.3 min
AUC(0-t) at 24 h [2]: 3600 ng·h/mL
Tmax [3]: 15 min
k el at 24 h [4]: 0.000506 s⁻¹
GI50 [5]: 380 nM
MRT [6]: 77.4 min
k el at 24 h [7]: 0.000234 s⁻¹
CL/F [8]: 33.5 mL/min/kg
AUC(0-t) at 24 h [9]: 10000 ng·h/mL
IC50 [10]: 444 nM
Ki [11]: 163 nM
Vdss [12]: 0.92 L/kg
bioavailability [13]: 119%
half-life [14]: 134 min
IC50 [15]: > 10000 nM
Ki [16]: > 10000 nM
IC50 [17]: 145 nM
C0 at 24 h [18]: 6500 ng/mL
Compound: Nc1nc(-c2ccco2)c2cnn(CCc3ccc(C(=O)Nc4ccccc4N)cc3)c2n1
